In brackets after ≈: the same amount, converted by molar mass.
What was measured:
Type in all cases: cell-based
[1] = test system: Haemophilus influenzae ATCC10211; test: MIC, microbroth dilution (NCCLS); details: rifS strain, BHI Broth with NAD and hematin, 37° C., read-out: Antimicrobial activity (MIC)
[2] = test system: Streptococcus pyogenes ATCC19615; test: MIC, microbroth dilution (NCCLS); details: rifS strain, THY Broth, 37° C., read-out: Antimicrobial activity (MIC)
[3] = test system: Streptococcus pneumoniae ATCC6303; test: MIC, microbroth dilution (NCCLS); details: rifS strain, THY Broth with 1 mg/mL catalase, 5% CO2, 37° C., read-out: Antimicrobial activity (MIC)
[4] = test system: Mycobacterium smegmatis ATCC700084; test: MIC, microbroth dilution (NCCLS); details: Mycolicibacterium smegmatis, rifS strain, Middlebrook Broth plus ADC Enrichment, 37° C., read-out: Antimicrobial activity (MIC)
[5] = test system: Escherichia coli ATCC25922; test: MIC, microbroth dilution (NCCLS); details: rifS strain, Cation-Adjusted Mueller-Hinton Broth, 37° C., read-out: Antimicrobial activity (MIC)
[6] = test system: Staphylococcus aureus EN1252a gyrA^S84L grlA^S80F; test: microbe, parasite or virus in culture; details: read-out: Antimicrobial activity (MIC)
Method: (§1) Representative compounds were assayed for antimicrobial activity as follows: Minimum Inhibitory Concentrations (“MICs”) were determined by the microbroth dilution method as per NCCLS guidelines (National Committee for Clinical Laboratory Standards. 2000. Methods for dilution antimicrobial susceptibility tests for bacteria that grow aerobically, 5th ed. M7-A5. National Committee for Clinical Laboratory Standards, Wayne, Pa.), except that all growth incubations were conducted at 37° C. Bacterial cultures were tested in the following bacteriological media: S. aureus, S. epidermidis, and E. coli in Cation-Adjusted Mueller-Hinton Broth, S. pneumoniae in THY Broth supplemented with 1 mg/mL catalase under 5% CO2 atmosphere, S. pyogenes in THY Broth, E. faecalis in BHI Broth, H. influenzae in BHI Broth supplemented with 0.75 μL of 1 mg/mL NAD and 150 μL of 1 mg/ml hematin per 5 mL, and M. smegmatis in Middlebrook Broth plus ADC Enrichment.
(§2) S. aureus ATCC 29213 RpoB^H418Y is a rifampin-resistant strain with a mutation in RNA polymerase, the biological target of rifamycin antibiotics. […] S. aureus EN1252a gyrA^S84L grlA^S80F is a quinolone-resistant strain due to double mutations to DNA gyrase and topoisomerase IV, the two biological targets for quinolone antibiotics.

[7] = test system: Staphylococcus aureus ATCC29213 rpoB^H418Y; test: microbe, parasite or virus in culture; details: ATCC29213, read-out: Antimicrobial activity (MIC)
Method: as §1, §2

[8] = test system: Staphylococcus aureus ATCC29213 rpoB^D417Y; test: microbe, parasite or virus in culture; details: ATCC29213, read-out: Antimicrobial activity (MIC)
Method: as §1, §2

[9] = test system: Enterococcus faecalis ATCC29212; test: MIC, microbroth dilution (NCCLS); details: rifS strain, BHI Broth, 37° C., read-out: Antimicrobial activity (MIC)
[10] = test system: Staphylococcus aureus ATCC29213; test: MIC, microbroth dilution (NCCLS); details: rifS strain, Cation-Adjusted Mueller-Hinton Broth, 37° C., read-out: Antimicrobial activity (MIC)
[11] = test system: Staphylococcus epidermidis ATCC12228; test: MIC, microbroth dilution (NCCLS); details: rifS strain, Cation-Adjusted Mueller-Hinton Broth, 37° C., read-out: Antimicrobial activity (MIC)

With `COc1c(N2CCCC(NC(=O)C3CN(C4=C5NC(=O)/C(C)=C\C=C\[C@H](C)[C@H](O)[C@@H](C)[C@@H](O)[C@@H](C)[C@H](OC(C)=O)[C@H](C)[C@@H](OC)/C=C/O[C@@]6(C)Oc7c(C)c(O)c(c(c7C6=O)C4=O)C5=O)C3)C2)c(F)cc2c(=O)c(C(=O)O)cn(C3CC3)c12` (mixture of isomers) [Example 46, 3-{3-[1-(3-Carboxy-1-cyclopropyl-6-fluoro-8-methoxy-4-oxo-1,4-dihydroquinolin-7-yl)-piperidin-3-ylcarbamoyl]-azetidin-1-yl}rifamycin S] the MIC [1] was 0.125 to 2 mg/L, the MIC [2] was 0.008 to 0.063 mg/L and the MIC [3] was 0.008 to 0.125 mg/L. For the same compound, the MIC [4] was 0.5 to 64 mg/L, the MIC [5] was 0.125 to 8 mg/L and the MIC [6] was 0.004 to 0.5 mg/L. It also gave an MIC [7] of 0.06 to 16 mg/L, an MIC [8] of 0.06 to 32 mg/L and an MIC [9] of 2 to 32 mg/L. It also gave an MIC [10] of 0.004 to 0.5 mg/L and an MIC [11] of 0.008 to 0.063 mg/L.
`CO[C@H]1/C=C/O[C@@]2(C)Oc3c(C)c(O)c4c(c3C2=O)C(=O)C(NC2CCN(c3c(F)cc5c(=O)c(C(=O)O)cn(C6CC6)c5c3Cl)C2)=C(NC(=O)/C(C)=C\C=C\[C@H](C)[C@H](O)[C@@H](C)[C@@H](O)[C@@H](C)[C@H](OC(C)=O)[C@@H]1C)C4=O` (mixture of isomers) [Example 7, (R/S)-3-[1-(3-Carboxy-8-chloro-1-cyclopropyl-6-fluoro-4-oxo-1,4-dihydroquinolin-7-yl)-pyrrolidin-3-ylamino]rifamycin S] was tested, and the MIC [1] was 0.125 to 2 mg/L (≈ 0.118 to 1.89 µM), the MIC [2] was 0.008 to 0.063 mg/L (≈ 0.00755 to 0.0595 µM) and the MIC [3] was 0.008 to 0.125 mg/L (≈ 0.00755 to 0.118 µM). For the same compound, the MIC [4] was 0.5 to 64 mg/L, the MIC [5] was 0.125 to 8 mg/L (≈ 0.118 to 7.55 µM) and the MIC [6] was 0.004 to 0.5 mg/L (≈ 0.00378 to 0.472 µM). It also gave an MIC [7] of 0.06 to 16 mg/L (≈ 0.0566 to 15.1 µM), an MIC [8] of 0.06 to 32 mg/L (≈ 0.0566 to 30.2 µM) and an MIC [9] of 2 to 32 mg/L (≈ 1.89 to 30.2 µM). The MIC [10] was 0.004 to 0.5 mg/L (≈ 0.00378 to 0.472 µM) and the MIC [11] was 0.008 to 0.063 mg/L (≈ 0.00755 to 0.0595 µM).
With `CO[C@H]1/C=C/O[C@@]2(C)Oc3c(C)c(O)c4c(O)c(c(CNC5CCN(c6c(F)cc7c(=O)c(C(=O)O)cn(C8CC8)c7c6Cl)C5)c(O)c4c3C2=O)NC(=O)/C(C)=C\C=C\[C@H](C)[C@H](O)[C@@H](C)[C@@H](O)[C@@H](C)[C@H](OC(C)=O)[C@@H]1C` (mixture of isomers) [Example 13, (R/S)-3-[1-(8-Chloro-3-carboxy-1-cyclopropyl-6-fluoro-4-oxo-1,4-dihydroquinolin-7-yl)-pyrrolidinyl-3-aminomethyl]rifamycin SV] the MIC [1] was 0.125 to 2 mg/L (≈ 0.116 to 1.86 µM), the MIC [2] was 0.008 to 0.063 mg/L (≈ 0.00744 to 0.0586 µM) and the MIC [3] was 0.008 to 0.125 mg/L (≈ 0.00744 to 0.116 µM). It also gave an MIC [4] of 0.5 to 64 mg/L, an MIC [5] of 0.125 to 8 mg/L (≈ 0.116 to 7.44 µM) and an MIC [6] of 0.004 to 0.5 mg/L (≈ 0.00372 to 0.465 µM). It also gave an MIC [7] of 0.06 to 16 mg/L (≈ 0.0558 to 14.9 µM), an MIC [8] of 0.06 to 32 mg/L (≈ 0.0558 to 29.8 µM) and an MIC [9] of 2 to 32 mg/L (≈ 1.86 to 29.8 µM). For the same compound, the MIC [10] was 0.004 to 0.5 mg/L (≈ 0.00372 to 0.465 µM) and the MIC [11] was 0.008 to 0.063 mg/L (≈ 0.00744 to 0.0586 µM).
`COc1c(N2CCC(NC3=C4NC(=O)/C(C)=C\C=C\[C@H](C)[C@H](O)[C@@H](C)[C@@H](O)[C@@H](C)[C@H](OC(C)=O)[C@H](C)[C@@H](OC)/C=C/O[C@@]5(C)Oc6c(C)c(O)c(c(c6C5=O)C3=O)C4=O)C2)c(F)cc2c(=O)c(C(=O)O)cn(C3CC3)c12` (mixture of isomers) [Example 27] was tested, and the MIC [1] was 0.125 to 2 mg/L (≈ 0.118 to 1.9 µM), the MIC [2] was 0.008 to 0.063 mg/L (≈ 0.00758 to 0.0597 µM) and the MIC [3] was 0.008 to 0.125 mg/L (≈ 0.00758 to 0.118 µM). The MIC [4] was 0.5 to 64 mg/L, the MIC [5] was 0.125 to 8 mg/L (≈ 0.118 to 7.58 µM) and the MIC [6] was 0.004 to 0.5 mg/L (≈ 0.00379 to 0.474 µM). The MIC [7] was 0.06 to 16 mg/L (≈ 0.0569 to 15.2 µM), the MIC [8] was 0.06 to 32 mg/L (≈ 0.0569 to 30.3 µM) and the MIC [9] was 2 to 32 mg/L (≈ 1.9 to 30.3 µM). The MIC [10] was 0.004 to 0.5 mg/L (≈ 0.00379 to 0.474 µM) and the MIC [11] was 0.008 to 0.063 mg/L (≈ 0.00758 to 0.0597 µM).
`COc1c(N2CCC(N(C)C3=C4NC(=O)/C(C)=C\C=C\[C@H](C)[C@H](O)[C@@H](C)[C@@H](O)[C@@H](C)[C@H](OC(C)=O)[C@H](C)[C@@H](OC)/C=C/O[C@@]5(C)Oc6c(C)c(O)c(c(c6C5=O)C3=O)C4=O)C2)c(F)cc2c(=O)c(C(=O)O)cn(C3CC3)c12` (mixture of isomers) [Example 28] was tested, and the MIC [1] was 0.125 to 2 mg/L (≈ 0.117 to 1.87 µM), the MIC [2] was 0.008 to 0.063 mg/L (≈ 0.00748 to 0.0589 µM) and the MIC [3] was 0.008 to 0.125 mg/L (≈ 0.00748 to 0.117 µM). For the same compound, the MIC [4] was 0.5 to 64 mg/L, the MIC [5] was 0.125 to 8 mg/L (≈ 0.117 to 7.48 µM) and the MIC [6] was 0.004 to 0.5 mg/L (≈ 0.00374 to 0.468 µM). The MIC [7] was 0.06 to 16 mg/L (≈ 0.0561 to 15 µM), the MIC [8] was 0.06 to 32 mg/L (≈ 0.0561 to 29.9 µM) and the MIC [9] was 2 to 32 mg/L (≈ 1.87 to 29.9 µM). For the same compound, the MIC [10] was 0.004 to 0.5 mg/L (≈ 0.00374 to 0.468 µM) and the MIC [11] was 0.008 to 0.063 mg/L (≈ 0.00748 to 0.0589 µM).

— patent publication US7247634B2, “Rifamycin derivatives effective against drug-resistant microbes” (Cumbre Pharmaceuticals Inc., priority 2004, dated 2007)
